A short description of series [1]: Cytotoxicity against human HT-29 cells assessed as reduction in cell viability by celltiter-glo luminescent cell viability assay. Format: toxicity, cell-based.
For series [2], the target named is T1, Receptor-interacting serine/threonine-protein kinase 1 (Homo sapiens) (UniProt Q13546).
T1 sequence (whole entry): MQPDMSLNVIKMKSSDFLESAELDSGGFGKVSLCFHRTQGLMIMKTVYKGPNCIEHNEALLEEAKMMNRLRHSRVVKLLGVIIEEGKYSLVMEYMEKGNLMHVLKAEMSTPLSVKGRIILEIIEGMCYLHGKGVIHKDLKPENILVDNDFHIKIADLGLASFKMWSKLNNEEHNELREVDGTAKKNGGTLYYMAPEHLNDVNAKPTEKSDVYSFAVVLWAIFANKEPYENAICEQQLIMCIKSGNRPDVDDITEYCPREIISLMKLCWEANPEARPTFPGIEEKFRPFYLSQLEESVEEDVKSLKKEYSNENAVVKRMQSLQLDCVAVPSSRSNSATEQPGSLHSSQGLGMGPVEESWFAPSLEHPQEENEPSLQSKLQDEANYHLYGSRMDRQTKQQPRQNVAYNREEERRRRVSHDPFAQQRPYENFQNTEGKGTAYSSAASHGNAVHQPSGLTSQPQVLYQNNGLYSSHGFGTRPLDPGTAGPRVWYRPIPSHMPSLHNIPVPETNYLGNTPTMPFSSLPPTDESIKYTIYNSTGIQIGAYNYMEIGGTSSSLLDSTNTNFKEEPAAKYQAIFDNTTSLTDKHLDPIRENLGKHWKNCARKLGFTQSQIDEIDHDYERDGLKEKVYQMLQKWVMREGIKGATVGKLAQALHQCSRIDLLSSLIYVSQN
Nature of the series: Inhibition of RIPK1 in human HT-29 cells assessed as reduction in TSZ induced necroptosis pretreated with compound followed by TSZ stimulation for 8 hrs by celltiter-glo luminescent cell viability assay. The conditions noted are these: dose 0.4-50 nM, DDE = dose-dependent effect. It counts as cell-based.

Series [3] deals with T1, Receptor-interacting serine/threonine-protein kinase 1 (Homo sapiens). The series can be described thus: Inhibition of RIPK1 in human HT-29 cells assessed as reduction in TCZ induced necroptosis at 0.2 to 25 nM pretreated with compound followed by TCZ stimulation for 16 hrs by celltiter-glo luminescent cell viability assay. The conditions noted are these: dose 0.2-25 nM. It counts as cell-based.

The target of series [4] is T2, Receptor-interacting serine/threonine-protein kinase 1 (Mus musculus) (UniProt Q60855).
T2 sequence (whole entry): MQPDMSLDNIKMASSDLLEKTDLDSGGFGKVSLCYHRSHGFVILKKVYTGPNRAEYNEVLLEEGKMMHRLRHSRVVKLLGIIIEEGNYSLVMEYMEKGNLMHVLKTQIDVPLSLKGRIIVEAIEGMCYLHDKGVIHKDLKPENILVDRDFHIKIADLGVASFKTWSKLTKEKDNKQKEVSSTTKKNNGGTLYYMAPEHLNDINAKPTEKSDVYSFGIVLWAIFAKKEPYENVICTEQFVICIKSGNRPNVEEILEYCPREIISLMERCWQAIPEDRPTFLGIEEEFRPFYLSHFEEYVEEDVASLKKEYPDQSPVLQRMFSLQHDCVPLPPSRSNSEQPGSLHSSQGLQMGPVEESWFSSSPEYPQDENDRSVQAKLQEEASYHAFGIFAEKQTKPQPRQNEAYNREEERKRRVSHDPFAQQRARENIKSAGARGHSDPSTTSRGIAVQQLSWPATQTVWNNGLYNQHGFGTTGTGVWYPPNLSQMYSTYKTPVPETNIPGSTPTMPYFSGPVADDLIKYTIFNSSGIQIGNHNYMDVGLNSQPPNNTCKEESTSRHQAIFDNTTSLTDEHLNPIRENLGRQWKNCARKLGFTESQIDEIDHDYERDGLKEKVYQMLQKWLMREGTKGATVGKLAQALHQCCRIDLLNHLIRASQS
The series can be described thus: Inhibition of RIPK1 in mouse L929 cells assessed as reduction in TZ induced necroptosis pretreated with compound followed by TZ stimulation for 4 hrs by celltiter-glo luminescent cell viability assay. The conditions noted are these: dose 0.000781-0.025 µM, DDE = dose-dependent effect. Format: cell-based.

For series [5], the target named is T1, Receptor-interacting serine/threonine-protein kinase 1 (Homo sapiens). Nature of the series: Inhibition of RIPK1 phosphorylation in TSZ induced human HT-29 cells at 1 uM pretreated with compound followed by TSZ stimulation upto 6 hrs by immunoblotting analysis relative to control. It counts as cell-based.
The target of series [6] is Receptor-interacting serine/threonine-protein kinase 3 (Homo sapiens, UniProt Q9Y572). Nature of the series: Inhibition of RIPK3 phosphorylation in TSZ induced human HT-29 cells at 1 uM pretreated with compound followed by TSZ stimulation upto 6 hrs by immunoblotting analysis. Format: cell-based.
The subject of a further series is HT-29. Nature of the series: Inhibition of TSZ induced RIPK1-RIPK3 necrosome formation in human HT-29 cells at 1 uM measured after 6 hrs by immunoblot analysis. Format: functional, cell-based.
In series [7] the test system is Mus musculus. The series can be described thus: Anti-necroptosis activity against TNFalpha-induced C57BL/6 mouse model of systemic inflammatory response syndrome assessed as protection against hypothermia at 20 to 40 mg/kg, IG pretreated for 1 hr followed by TNFalpha stimulation relative to control. Format: functional. Conditions: dose 20-40 mg/kg.
Series [8] concerns Mus musculus. The series can be described thus: Anti-necroptosis activity against TNFalpha-induced C57BL/6 mouse model of systemic inflammatory response syndrome assessed as reduction in IL-6 level administered IG pretreated for 1 hr followed by TNFalpha stimulation for 2 hrs. Format: functional, organism-based. The conditions noted are these: dose 10-40 mg/kg, time 3.0 hrs, DDE = dose-dependent effect.

The test system of series [9] is Mus musculus. The series can be described thus: Antialzheimer activity against STZ induced C57BL/6 mouse model of cognitive dysfunction assessed as prolonged exploration time for new objects at 1 mg/kg, IG administered once daily for 7 days by novel object recognition test. It counts as functional, organism-based. Conditions: time 7.0 day.
Series [10] concerns Mus musculus. Nature of the series: Antialzheimer activity against STZ induced C57BL/6 mouse model of cognitive dysfunction assessed as increase in preference index at 1 mg/kg, IG administered once daily for 7 days by novel object recognition test. Format: functional, organism-based. The conditions noted are these: time 7.0 day.
Series [11] deals with Mus musculus. The series can be described thus: Antialzheimer activity against STZ induced C57BL/6 mouse model of cognitive dysfunction assessed as increase in number of active avoidance time at 1 mg/kg, IG administered once daily and measured for 4 days by active avoidance test. It counts as functional, organism-based. The conditions noted are these: time 4.0 day.
The species named for series [12] is Mus musculus. Nature of the series: Antialzheimer activity against STZ induced C57BL/6 mouse model of cognitive dysfunction assessed as restoration of hippocampal morphology by Nissl staining based analysis. Format: functional, organism-based.
The nature of series [13]: Toxicity in C57BL/6 mouse assessed as effect on lungs by H and E staining based analysis. Conditions: in vivo.
Series [14] can be described thus: Toxicity in C57BL/6 mouse assessed as effect on spleen by H and E staining based analysis. It counts as tissue-based. Conditions: in vivo.
The species named for series [15] is Mus musculus. Nature of the series: Antialzheimer activity against STZ induced C57BL/6 mouse model of cognitive dysfunction assessed as downregulation of IL-1 beta in frontal cortex. It counts as functional, organism-based.
Series [16] is filed under the species Mus musculus. Nature of the series: Antialzheimer activity against STZ induced C57BL/6 mouse model of cognitive dysfunction assessed as decrease of TNF-alpha expression in hippocampus. Format: functional, organism-based.
Series [17] is filed under the species Mus musculus. The series can be described thus: Antialzheimer activity against STZ induced C57BL/6 mouse assessed as decrease in p-RIPK1/RIPK1 ratio in frontal cortex. It counts as functional, organism-based.
For series [18], the species on record is Mus musculus. The series can be described thus: Antialzheimer activity against STZ induced C57BL/6 mouse assessed as decrease in p-RIPK1/RIPK1 ratio in hippocampus. It counts as functional, organism-based.
Series [19] is filed under the species Mus musculus. The series can be described thus: Antialzheimer activity against STZ induced C57BL/6 mouse assessed as decrease in p-RIPK3/RIPK3 ratio in frontal cortex. It counts as functional, organism-based.
For series [20], the species on record is Mus musculus. The series can be described thus: Antialzheimer activity against STZ induced C57BL/6 mouse assessed as decrease in p-RIPK3/RIPK3 ratio in hippocampus. Format: functional, organism-based.

Each structure is given as a SMILES string. The source made the active and inactive calls. The calls are words filed in the database; no cut-off is given here.

Sequence of Receptor-interacting serine/threonine-protein kinase 3 (Q9Y572 whole entry, looked up): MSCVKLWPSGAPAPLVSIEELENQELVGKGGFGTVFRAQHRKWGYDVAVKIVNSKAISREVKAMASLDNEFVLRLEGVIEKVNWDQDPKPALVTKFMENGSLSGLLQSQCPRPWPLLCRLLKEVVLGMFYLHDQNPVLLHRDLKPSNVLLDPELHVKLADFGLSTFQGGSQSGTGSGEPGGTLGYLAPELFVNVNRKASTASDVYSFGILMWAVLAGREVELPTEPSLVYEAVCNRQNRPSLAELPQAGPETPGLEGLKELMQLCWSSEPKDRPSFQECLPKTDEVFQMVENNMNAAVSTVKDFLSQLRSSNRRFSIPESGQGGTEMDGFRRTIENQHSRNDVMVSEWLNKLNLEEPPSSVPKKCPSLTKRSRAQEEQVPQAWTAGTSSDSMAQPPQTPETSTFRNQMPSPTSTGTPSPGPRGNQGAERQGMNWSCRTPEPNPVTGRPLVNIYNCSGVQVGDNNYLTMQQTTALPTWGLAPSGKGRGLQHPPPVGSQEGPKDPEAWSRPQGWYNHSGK

On to `O=C1CC(C(=O)Nc2nc3cc(Oc4ccc(F)c(NC(=O)Cc5cccc(OC(F)(F)F)c5)c4)c(F)cc3s2)C1`, for which the CC50 in series [1] was more than 50 µM. Further, the inhibition result was “Dde” in [2] and 100% in [5]. Also, the inhibition result (in [3]; in series [6]; with HT-29) was “Active” each time. The Activity entry in series [4] is “Dde”; in the series on Mus musculus [7], 100%; in the series on Mus musculus [8], “Dde”; in series [13], “Non-Toxic”; in series [14] it was “Non-Toxic”. Moreover, the outcome in the series with Mus musculus [9], with Mus musculus [10], in the series with Mus musculus [11], in the series filed under Mus musculus [12], in the series listed under Mus musculus [15] and in the series filed under Mus musculus [16] was Active. Moreover, the outcome in the series listed under Mus musculus [17], in the series filed under Mus musculus [18], in the series filed under Mus musculus [19] and in the series filed under Mus musculus [20] was Active.

The record behind these values is ChEMBL document CHEMBL5096222, “Discovery of a Trifluoromethoxy Cyclopentanone Benzothiazole Receptor-Interacting Protein Kinase 1 Inhibitor as the Treatment for Alzheimer's Disease” (J Med Chem, 2022).
